Measurements: US9163027B2, “Substituted triazolo-pyrimidine compounds for modulating cell proliferation differentiation and survival” (STATegics, Inc., priority 2012, dated 2015)

What was measured:
PC12 cells = assay: PC12 cell survival under serum deprivation (CellTiter-Glo); format: cell-based, rat; settings: 72 h serum-free; for minimal effective concentration: Rattus norvegicus, PC-12, read-out: PC12 cell proliferation (CellTiter-Glo ®) Concentration at which RLU increased >25% compared to medium control
Method: Each culture condition was performed in quadruplicate in each experiment and the mean values were calculated. The results represent mean±SEM of relative light unit values when compared to the mean values obtained in the presence of the medium alone. A total of 13 experiments were performed and the statistical significance was analyzed using GraphPad Prism software using ANOVA, followed by paired t-test. The symbol * indicates P-values <0.01.
PC12 cells were cultured in DMEM supplemented with 10% fetal calf serum and 5% horse serum. […] Cell viability was analyzed by CellTiter-Glo® reagent (Promega).
PC12 cells were cultured in DMEM supplemented with 10% fetal calf serum and 5% horse serum. […] Cell survival of the serum-starved cells was analyzed by CellTiter-Glo® reagent luminescence reading.
FIG. 2 illustrates neuroprotective effects of Compounds 1-5 when tested in PC12 cell protection assays. PC12 cells were subjected to serum deprivation as described under FIG. 1.
PC12 cells were cultured in DMEM supplemented with 10% fetal calf serum and 5% horse serum. […] Cell survival of the serum-starved cells was analyzed by CellTiter-Glo® reagent luminescence reading (relative light units, “RLU”). […] “NS” indicates RLU increased <25% when compounds were tested at 5 uM.

[1] = system: rat ventral mesencephalic dopaminergic neurons; assay: Protection of primary dopaminergic neurons from 6-OHDA (THir neuron staining); format: cell-based; settings: 6.25 uM 6-OHDA 40 min, FIG. 7
Method: Dissociated embryonic D14 rat ventral mesencephalic cells were used.
Dopaminergic neurons play a key role in the pathogenesis of Parkinson's disease and compounds enhancing survival of these cells have significant therapeutic potential. Dissociated embryonic D14 rat ventral mesencephalic cells were used to test the potential of EPO mimetic compounds to protect primary dopaminergic neurons. […] The cells were plated in 48-well poly-D-lysine coated plates using a microisland technique. The microislands were seeded into dry plates in 10 uL aliquots of 3000 cells/uL and incubated at 37° C. for 1 h to allow for adhesion. […] On day 3, the medium was replaced with 6.25 uM 6-hydroxydopamine (6-OHDA, Sigma) for a 40 minute incubation. The toxin was then removed and the cells were cultured for an additional 2 days. On day 5, the cells were fixed, permeabilized and stained for tyrosine hydroxylase-immunoreactive (THir) neurons.

[2] = system: human CD34+ hematopoietic stem cells; assay: Proliferation and differentiation of primary human CD34+ cells; format: cell-based
Method: Compound 10 was tested at different concentrations for its ability to induce proliferation and differentiation of human CD34+ hematopoietic stem cells. Human CD34+ cells were purified by (FIG. 6A) immunomagnetic beads (>90% purity, purchased from Stem Cell Technologies) or (FIG. 6B) cell sorting (at Blood Systems Research Institute) and the cells were cultured in the presence of compounds for eight (FIG. 6A) or eleven (FIG. 6B) days. (FIG. 6A) The level of cell growth and survival was measured based on ATP levels (CellTiterGlo reagent), or (FIG. 6B) the expression level of CD235a was analyzed by flow cytometry as a marker for cell maturation. Cell survival was analyzed using the CellTiterGlo reagent to measure ATP levels as a marker of metabolically active cells that have not undergone apoptosis, and expression of CD235a as a marker of erythroid cell differentiation and as a specific marker for EPO-like erythropoietic activity.

primary human neurons = assay: Neuroprotection of primary human neurons against staurosporine; format: cell-based; settings: 47 days in culture, compound 24 h, then staurosporine 500 nM 24 h, FIG. 3B
Method: A) Primary rat cortical neurons were isolated from micro-surgically dissected regions of day 18 embryonic rat brain (Brain Bits, LLC, Springfield, Ill.) and cultured for 12 days in vitro. Then, Compounds 5-7 were added for 24 h. Next, NMDA (50 uM) was added and the cells were cultured for an additional 24 hours. Cells cultured without the insult were considered to represent 0% neuron death. The data represent mean±SEM of six replicate cultures and * indicates P value ≦0.05. B) Primary micro-dissected fetal brain tissue was obtained from a commercial source (Advanced Bioscience Resources, Inc., Alameda, Calif.). […] Staurosporine (500 nM) was added and the cells were cultured for an additional 24 hours. Cells cultured without the insult were considered to represent 0% neuron death. The data represent mean±SEM of six replicate cultures and * indicates P value ≦0.05.

EPO receptor [3] = molecular target: T1, EPO receptor (Homo sapiens, UniProt P19235); assay: EPO receptor phosphorylation in primary human fetal neural cells (phospho-EPOR ELISA); format: cell-based; settings: FIG. 5A; for EPO receptor phosphorylation: 10 min incubation; for level of receptor activation compared with recombinant human EPO: recombinant human EPO 10 IU/ml
T1 construct: endogenous in cells; host or cells: primary human fetal neural cells cultured from micro-dissected fetal brain tissue (Advanced Bioscience Resources, Inc.)
T1 sequence (P19235 25-508): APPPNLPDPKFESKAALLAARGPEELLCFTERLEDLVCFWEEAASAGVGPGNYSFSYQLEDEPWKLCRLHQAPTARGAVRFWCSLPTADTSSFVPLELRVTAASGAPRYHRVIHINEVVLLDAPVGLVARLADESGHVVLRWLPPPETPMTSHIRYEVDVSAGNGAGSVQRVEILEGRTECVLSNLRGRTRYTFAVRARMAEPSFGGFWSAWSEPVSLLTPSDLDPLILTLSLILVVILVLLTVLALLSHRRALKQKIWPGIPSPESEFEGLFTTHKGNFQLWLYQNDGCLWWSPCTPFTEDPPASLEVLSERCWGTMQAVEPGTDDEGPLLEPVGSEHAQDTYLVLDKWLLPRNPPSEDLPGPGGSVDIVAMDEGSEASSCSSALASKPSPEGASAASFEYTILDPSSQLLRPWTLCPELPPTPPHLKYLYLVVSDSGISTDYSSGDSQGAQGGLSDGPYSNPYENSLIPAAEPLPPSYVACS
Method: (§1) Primary micro-dissected fetal brain tissue was obtained from a commercial source (Advanced Bioscience Resources, Inc., Alameda, Calif.). Cultured primary human fetal neural cells (3 h, 1 day, 17 days, or 26 days in culture) were incubated with Compound 5, Compound 6, or controls for 10 min (FIG. 5A). Phospho-EPOR was detected by ELISA (R&D Systems). […] Human erythropoietic cell line TF-1 was cultured for 10 min in the presence of Compound 5, Compound 6, or the controls, and phospho-EPOR was detected by ELISA (R&D Systems). The data represent mean±SEM of triplicate cultures. […] The receptor activation results were consistent with functional cell based assays using primary human CD34+ bone marrow progenitor cells and erythroleukemia cell line TF-1.

frataxin [4] = assay: Frataxin protein levels in primary human fetal neurons (ELISA); format: cell-based; settings: 28 days in culture, 24 h incubation, FIG. 4B
Method: The effects of the compounds on frataxin protein levels in cells were analyzed. […] Embryonic mouse cell line P19 was differentiated into neuronal cells in the presence of retinoic acid and frataxin levels were measured (FIG. 4A). Frataxin levels were measured after 24 h by multi-species frataxin-ELISA (MitoSciences) and compared to total protein levels. The data represent mean±SEM. Primary human fetal neurons (28 days in culture) were also incubated for 24 h in the presence of the compounds, and human frataxin levels were measured by ELISA (MitoSciences) and compared to total protein levels (FIG. 4B). The data represent mean±SEM of triplicate measurements. Compounds were also tested for their effects on frataxin levels in cells derived from patients with FRDA. Cultures of patient peripheral blood mononuclear cells (PBMCs) were also used to test the EPO mimetic compounds for frataxin enhancement in frataxin-deficient cells. Compound 1 and Compounds 5-6 enhanced frataxin levels in these patient cells at concentration 1 uM or lower.

EPO receptor [5] = assay: EPO receptor phosphorylation in erythroleukemia cell line TF-1 (phospho-EPOR ELISA); format: cell-based, human; settings: TF-1, 10 min, FIG. 5B
Method: as §1

TF-1 cells = assay: Proliferation of TF-1 cells; format: cell-based, human; settings: at concentrations that provided significant neuroprotective effects
rats [6] = assay: Kidney and CNS protection against DMA + Cremophor EL toxicity in rats; format: in vivo, rat; settings: DMA + CrEL 2.5 mL/kg each IP
Method: High-dose N,N-dimethylacetamide (DMA)+Cremophor EL (CrEL) (2.5 mL/kg each, IP) was used to induce acute CNS and organ toxicity, and the potential of Compound 5 to protect the rats was studied.

rats [7] = settings: rat model of MCA occlusion (Brines et al. 2000); cited from earlier work
[8] = human, intravenous administration (Xenocostas et al. 2005); cited from earlier work
frataxin [9] = settings: 8 FRDA patients, open label pilot trial (Boesch et al. 2008); cited from earlier work
frataxin [10] = settings: patients with chronic kidney disease, rhEPO infusion for anemia (Sturm et al. 2005); cited from earlier work
[11] = NS = RLU increased <25% at 5 uM

Molecule	minimal effective concentration (PC12 cells; [11]) [µM]	neuroprotective effect (neuron death) (primary human neurons)	EPO receptor phosphorylation (EPO receptor [3])	level of receptor activation compared with recombinant human EPO (EPO receptor [3])	frataxin protein levels (frataxin [4])	EPO receptor activation (phospho-EPOR) (EPO receptor [5])	proliferation of TF-1 cells (TF-1 cells)	also measured
Cc1cc(C)n2nc(SCCOc3ccc(Cl)cc3)nc2n1 [Example 1, 2-{[2-(4-chlorophenoxy)ethyl]sulfanyl}-5,7-dimethyl-[1,2,4]triazolo[1,5-a]pyrimidine]	< 5							protection of PC12 cells (cell viability) (PC12 cells; 1 uM, FIG. 1, at least comparable to rhEPO): significant effect; level of protection of PC12 cells compared with rhEPO (PC12 cells; 5 uM vs rhEPO 10 U/ml, FIG. 1): higher level of protection than rhEPO; protection of dopaminergic neurons from 6-OHDA toxicity ([1]; 1 uM): significantly protected
COc1ccc(NC(=O)CSc2nc3nc(C)cc(C)n3n2)cc1 [Example 10, 2-({5,7-dimethyl-[1,2,4]triazolo[1,5-a]pyrimidin-2-yl}sulfanyl)-N-(4-methoxyphenyl)acetamide]								PC12 cell proliferation (CellTiter-Glo ®) Concentration at which RLU increased >25% compared to medium control (PC12 cells; [11]): NS (RLU increased <25% when compounds were tested at 5 uM); CD34+ progenitor cell proliferation (ATP levels, CellTiterGlo) ([2]; eight days culture, FIG. 6A): dose-dependent induction of CD34+ progenitor cell proliferation; differentiation into erythroid cells (CD235a expression, flow cytometry) ([2]; eleven days culture, FIG. 6B): differentiation into erythroid cells expressing CD235a
Cc1cc(C)n2nc(OCCOc3ccc(Cl)cc3)nc2n1 [Example 11, 2-[2-(4-chlorophenoxy)ethoxy]-5,7-dimethyl-[1,2,4]triazolo[1,5-a]pyrimidine]	< 5	Significant protective effects	increased EPO receptor phosphorylation in a dose-dependent manner	comparable to that induced by recombinant human EPO	increased frataxin protein levels	did not activate EPO receptor	did not induce proliferation	CNS toxicity of DMA/CrEL (rats [6]): prevented the CNS toxicity; response of the rats to formalin injection (rats [6]): normalized the response; kidney-protective effects measured by hypoproteinemia in serum (rats [6]; FIG. 8): Kidney-protective effects
Cc1cc(C)n2nc(OCCN(CCO)c3ccccc3)nc2n1 [Example 13, 2-{[2-({5,7-Dimethyl-[1,2,4]triazolo[1,5-a]pyrimidin-2-yl}oxy)ethyl](phenyl)amino}ethan-1-ol]	< 5	Significant protective effects	increased EPO receptor phosphorylation in a dose-dependent manner	comparable to that induced by recombinant human EPO	increased frataxin protein levels	did not activate EPO receptor	did not induce proliferation	
rhEPO: recombinant human (rh)EPO, erythropoietin; positive control						effective		protection of dopaminergic neurons from 6-OHDA toxicity ([1]; 10 IU/ml): significantly protected; reduction of infarct volume (rats [7]): 50-75%; concentration in cerebrospinal fluid lower than in circulation [8]: more than 1000 fold; increase in frataxin in lymphocytes (frataxin [9]): 24%; increase in frataxin levels in peripheral blood mononuclear cells (frataxin [10]): 2-3 fold
